According to patent publication US9272990B2, “Lysophosphatidic acid receptor antagonists and their use in the treatment fibrosis” (AMIRA PHARMACEUTICALS, INC., priority 2010, dated 2016):

What was measured:
Human LPA1 = target: T1, Human LPA1 (Homo sapiens, UniProt Q92633); experiment: LPA1 calcium flux assay; assay type: cell-based; conditions: CHO cells expressing human LPA1, stimulated with 10 nM LPA; read-out: LPA1 Ca^2+ flux
T1 construct: the full-length cDNA for human LPA1 was obtained by PCR of the reverse transcription reaction; expressed in transfected cells
T1 sequence (Q92633 whole entry): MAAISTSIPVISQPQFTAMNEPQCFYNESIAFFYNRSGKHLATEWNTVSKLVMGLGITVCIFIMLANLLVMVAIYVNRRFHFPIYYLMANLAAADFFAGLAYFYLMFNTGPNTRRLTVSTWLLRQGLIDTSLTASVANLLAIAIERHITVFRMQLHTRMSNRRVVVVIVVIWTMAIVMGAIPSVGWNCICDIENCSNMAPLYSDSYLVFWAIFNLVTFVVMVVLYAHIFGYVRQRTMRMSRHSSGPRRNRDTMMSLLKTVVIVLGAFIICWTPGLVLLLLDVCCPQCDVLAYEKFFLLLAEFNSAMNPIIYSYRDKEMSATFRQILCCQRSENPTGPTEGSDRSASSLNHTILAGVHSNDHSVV
Experimental: A 1.1 kb cDNA encoding the human LPA1 receptor was cloned from human lung. Human lung RNA (Clontech Laboratories, Inc. USA) was reverse transcribed using the RETROSCRIPT® kit (Ambion, Inc.) and the full-length cDNA for human LPA1 was obtained by PCR of the reverse transcription reaction. The nucleotide sequence of the cloned human LPA1 was determined by sequencing and confirmed to be identical to the published human LPA1 sequence (An et al., Biochem. Biophys. Res. Commun. 231:619 (1997). The cDNA was cloned into the pcDNA5/FRT expression plasmid and transfected in CHO cells using Lipofectamine 2000 (Invitrogen Corp., USA). Clones stably expressing human LPA1 were selected using hygromycin and identified as cells that show Ca-influx in response to LPA.
Human LPA1 or LPA3 expressing CHO cells are seeded at 20,000-45,000 cells per well in a 96-well poly-D-lysine coated plate one or two days before the assay. Prior to the assay, the cells are washed once with PBS and then cultured in serum-free media overnight. On the day of the assay, a calcium indicator dye (Calcium 4, Molecular Devices) in assay buffer (HBSS with Ca^2+ and Mg^2+ and containing 20 mM Hepes and 0.3% fatty-acid free human serum albumin) is added to each well and incubation continued for 1 hour at 37° C. 10 μl of test compounds in 2.5% DMSO are added to the cells and incubation continued at room temperature for 30 minutes. Cells are the stimulated by the addition of 10 nM LPA and intracellular Ca^2+ measured using the FLEXSTATION® 3 (Molecular Devices). IC50s are determined using Graphpad prism analysis of drug titration curves.

[1] = test system: mouse bleomycin lung fibrosis model; experiment: Bleomycin-induced lung fibrosis model in mice; assay type: in vivo
Excerpt: Female C57Bl/6 mice (Harlan, 25-30 g) are housed 4 per cage, given free access to food and water and allowed to acclimate for at least 7 days prior to test initiation. After the habituation phase, mice are lightly anesthetized with isoflurane (5% in 100% O2) and administered with bleomycin sulfate (0.01-5 U/kg, Henry Schein) via intratracheal instillation (Cuzzocrea, S et al., Am. J. Physiol. Lung Cell Mol. Physiol., 292(5):L1095-104 (May 2007) (Epub Jan. 12, 2007). Mice are returned to their cages and monitored daily for the duration of the experiment. Test compound or vehicle is delivered po, ip or sc daily. The route and frequency of dosing is based on previously determined pharmacokinetic properties. All animals are sacrificed using inhaled isoflurane 3, 7, 14, 21 or 28 days after bleomycin instillation. Following sacrifice, mice are intubated with a 20 gauge angiocatheter attached to a 1 ml syringe. Lungs are lavaged with saline to obtain bronchoalveolar lavage fluid (BALF) and then removed and fixed in 10% neutral buffered formalin for subsequent histopathological analysis. BALF is centrifuged for 10 min at 800×g to pellet the cells and the cell supernatant removed and frozen at −80° C. for subsequent protein analysis using the DC protein assay kit (Biorad, Hercules, Calif.) and soluble collagen analysis using Sircol (Biocolor Ltd, UK). BALF is analyzed for concentrations of inflammatory, pro-fibrotic and tissue injury biomarkers including transforming growth factor β1, hyaluronic acid, tissue inhibitor of metalloproteinase-1, matrix matelloproteinase-7, connective tissue growth factor and lactate dehydrogenase activity, using commercially available ELISA. The cell pellet is re-suspended in PBS. Total cell counts are then obtained using a HEMAVET® hematology system (Drew Scientific, Wayne, Pa.) and differential cells counts are determined using Shandon cytospin (Thermo Scientific, Waltham, Mass.). Lung tissue is stained using hematoxylin and eosin (H&E) and trichrome and lung fibrosis is determined by semiquantitative histopathological scoring (Ashcroft T. et al., J. Clin. Path., 41(4):467-470 (1988)) using light microscopy (10× magnification) and quantitative, computer-assisted densitometry of collagen in lung tissue sections using light microscopy. The data are plotted using Graphpad prism and statistical differences between groups determined

nerve-injured mice = conditions: pretreatment; cited from earlier work
LPA3 receptor = target: T2, LPA3 receptor (Mus musculus, UniProt Q9EQ31); conditions: in the presence of the agonist; cited from earlier work
T2 construct: host or cells: mouse kidney in vivo
T2 sequence (Q9EQ31 1-354): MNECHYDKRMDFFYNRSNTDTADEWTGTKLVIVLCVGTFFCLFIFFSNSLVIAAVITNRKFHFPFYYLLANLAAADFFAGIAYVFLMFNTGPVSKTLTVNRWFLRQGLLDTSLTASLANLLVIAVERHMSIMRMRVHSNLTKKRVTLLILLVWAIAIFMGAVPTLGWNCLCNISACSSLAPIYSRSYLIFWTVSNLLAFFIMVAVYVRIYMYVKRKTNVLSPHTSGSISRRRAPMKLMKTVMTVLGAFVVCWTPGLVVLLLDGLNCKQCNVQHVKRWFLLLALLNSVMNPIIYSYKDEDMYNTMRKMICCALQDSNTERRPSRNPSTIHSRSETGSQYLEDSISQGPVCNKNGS

[2] = test system: highly peritoneal metastatic pancreatic cancer cell line; conditions: cited from earlier work
[3] = test system: mouse epithelial renal cell line, MCT; conditions: co-treatment with LPA, MCT cells; cited from earlier work
[4] = test system: human foetal lung fibroblasts; conditions: cited from earlier work
bone metastasis = conditions: in vivo; cited from earlier work
[5] = test system: pancreatic cancer cell lines; conditions: cited from earlier work
UUO mice = conditions: compared with LPA1 (−/−) mice; cited from earlier work
[6] = multiple timepoints following intratracheal bleomycin instillation

CC(OC(=O)Nc1ccncc1-c1ccc(-c2ccc(C3(C(=O)O)CC3)cc2)cc1)c1ccccc1Cl (centres unmarked) [Compound 1-1, 1-(4′-{4-[1-(2-chloro-phenyl)-ethoxycarbonylamino]-pyridin-3-yl}-biphenyl-4-yl)-cyclopropanecarboxylic acid]
IC50 (Human LPA1): < 300 nM | BALF MMP-7 ([1]; acute setting (3 day)): reduced | BALF TGFβ1 ([1]; acute setting (3 day)): reduced | BALF collagen ([1]; acute setting (3 day)): reduced | BALF hyaluronan ([1]; acute setting (3 day)): reduced | BALF inflammatory cell influx ([1]; acute setting (3 day)): reduced | BALF protein ([1]; acute setting (3 day)): reduced | fibrosis [1, 6]: reduced | inflammation [1, 6]: reduced | lung injury [1, 6]: reduced | vascular leakage [1, 6]: reduced

C[C@@H](N)[C@H]1CC[C@H](C(=O)Nc2ccncc2)CC1 [Compound Y-27632]
allodynia and hyperalgesia (nerve-injured mice): completely abolished

CCCCCCCC/C=C\CCCCCCCC(=O)OC[C@@H](COP(O)(O)=S)OC [OMPT]
reduction of severity of injury by blockade of the LPA3 receptor (LPA3 receptor): reversed

Cc1noc(-c2ccc(CSCCC(=O)O)cc2)c1NC(=O)OC(C)c1ccccc1Cl (centres unmarked) [Ki16425]
LPA-induced and ascites-induced invasion activity [2]: blocked | LPA-induced expression of the profibrotic cytokine CTGF [3]: almost completely suppressed | chemotaxis of human foetal lung fibroblasts induced by BAL from IPF patients [4]: blocked | increased fibroblast chemotactic activity in bronchoalveolar lavage samples of human subjects with IPF [4]: inhibited | metastasis to bone (bone metastasis): inhibit metastasis to bone | in vitro migration in response to LPA and peritoneal fluid (ascites) from pancreatic cancer patients [5]: effectively blocked | development of renal fibrosis (UUO mice): closely resembled the LPA1 (−/−) mice
